In patent US12116388B2, “Amylin receptor agonists” (Novo Nordisk A/S, priority 2022, dated 2024):
Starred links: 1 amine or outer side, 2 acyl side, 3 side chain; linkers in the order of their positions; H or OH if unused. Residues, ends and D or L forms follow the SMILES beside them. *: point of attachment. C20 diacid = O=C(O)CCCCCCCCCCCCCCCCCCC(=O)*; C18 diacid = O=C(O)CCCCCCCCCCCCCCCCC(=O)*; γGlu = O=C(O)[C@H](CCC(=O)[*:2])N[*:1]

Experiment: Oral pharmacokinetic profiles in Beagle dogs (SNAC tablets)
Assay type: in vivo
Details: oral tablet: 3 mg compound, 300 mg SNAC, 7.7 mg magnesium stearate; for half-life: male, dog, plasma, read-out: T½ (converted)
Experimental: To be able to evaluate oral exposure following tablet dosing, tablet compositions comprising the test substance and SNAC (sodium N-(8-(2-hydroxybenzoyl)amino)caprylate) were prepared by mixing test substance with roller compacted SNAC and magnesium stearate as, e.g., described in WO 2019/149880.
This assay was performed to measure the oral bioavailability of a compound. The assay determined the exposure of test compound following oral administration in Beagle dogs as described by relevant pharmacokinetic parameters and plasma concentration curves.
Preparation of tablets for oral administration: tablets containing test compound used for the assay described herein were immediate release SNAC-based tablets. The test compound was spray-dried as neutral sodium salt (pH 7-8). Dry granulation was carried out by roller compaction on a Gerteis MINI-PACTOR. Tablets containing 3 mg test compound, 300 mg sodium N-(8-(2-hydroxybenzoyl)amino)caprylate (SNAC) and 7.7 mg magnesium stearate were produced on at Kilian Style One using 7.2×12 mm punches.
Determination of the absorption following oral administration: eight (8) male Beagle dogs, 1 to 8 years of age and weighing approximately 10-15 kg at the start of the studies, were used. The dogs were group-housed in pens (12 hours light:12 hours dark), and fed individually and restrictedly once daily with Royal Canin Medium Adult dog (Royal Canin Products, China Branch, or Brogaarden A/S, Denmark). Exercise and group social were permitted daily, whenever possible. The dogs were used for repeated pharmacokinetic studies with a suitable wash-out period between successive dosing. An appropriate acclimatisation period was given prior to initiation of the first pharmacokinetic study. All handling, dosing and blood sampling of the animals were performed by trained and skilled staff. Before the studies the dogs were fasted overnight and from 0 to 4 h after dosing. Besides, the dogs were restricted to water 1 hour before dosing until 4 hours after dosing, but otherwise had ad libitum access to water during the whole period.
Tablets containing the test compound were administered in the following manner: 10 min prior to tablet administration the dogs were dosed subcutaneously with approximately 3.2 nmol/kg of glucagon. The tablets were placed in the back of the mouth of the dog to prevent chewing. The mouth was then closed, and 10 mL of tap water was given by a syringe to facilitate swallowing of the tablet. Blood was sampled at predefined time points for up till 288 hours after dosing to adequately cover the full plasma concentration-time absorption profile of the compound. For each blood sampling time point approximately 1.2 mL of whole blood was collected in a 1.5 mL EDTA coated tube, and the tube was gently turned to allowing mixing of the sample with the EDTA. Then, the blood samples were kept on ice until centrifugation (4 min, 4° C., 4000 rpm). Plasma was pipetted into Micronic tubes on dry ice and kept at −20° C. until analysis. Blood samples were taken as appropriate, for example from a venflon in the cephalic vein in the front leg for the first 2 hours and then with syringe from the jugular vein for the rest of the time points (the first few drops were allowed to drain from the venflon to avoid heparin saline from the venflon in the sample).
Bioanalysis was carried out as follows: plasma concentrations of test compound were assayed by plasma protein precipitation and analysed by liquid chromatography-mass spectrometry (LC-MS). Calibrators were prepared by spiking blank dog plasma with analytes to reach the final concentrations in the range typically from 0.5 to 200 nM. Calibrators, plasma blanks or study samples were prepared for LC-MS by protein precipitation by adding 3 volumes of ethanol followed by centrifugation at 4000 rpm at 4° C. for 1 h. The supernatant was diluted with 2 volumes of Milli-Q water containing 0.1% formic acid before injection on the LC-MS system. […]

Row | Structure (SMILES) | half-life [h] | AUC/D [kg·h/L] | Cmax/D [kg/L]
1 | CC[C@H](C)[C@H](NC(=O)[C@@H]1CCCN1C(=O)CNC(=O)[C@H](Cc1ccccc1)NC(=O)[C@H](Cc1c[nH]cn1)NC(=O)[C@H](Cc1c[nH]cn1)NC(=O)[C@H](CC(C)C)NC(=O)[C@H](Cc1ccccc1)NC(=O)[C@H](CCC(=O)O)NC(=O)[C@H](C)NC(=O)[C@H](CC(C)C)NC(=O)[C@H](CCCNC(=N)N)NC(=O)[C@H](C)NC(=O)[C@@H](NC(=O)[C@H](CCC(N)=O)NC(=O)[C@H](C)NC(=O)[C@@H](NC(=O)[C@H](CO)NC(=O)[C@H](CC(C)C)NC(=O)[C@H](CCC(=O)O)NC(=O)CNC(=O)[C@H](C)NC(=O)CC[C@H](NC(=O)CCCCCCCCCCCCCCCCC(=O)O)C(=O)O)[C@@H](C)O)[C@@H](C)O)C(=O)N[C@@H](CC(C)C)C(=O)N1CCC[C@H]1C(=O)N1CCC[C@H]1C(=O)N[C@H](C(=O)N[C@@H](CC(=O)O)C(=O)N[C@H](C(=O)NCC(=O)N[C@@H](CO)C(=O)N[C@@H](CCC(=O)O)C(=O)N[C@H](C(=O)N1CCC[C@H]1C(N)=O)[C@@H](C)O)C(C)C)[C@@H](C)O [Compound 16, N^1-[(4S)-4-carboxy-4-(17-carboxyheptadecanoylamino)butanoyl]-[Ala1,Gly2,Glu3,Leu4,Ser5,Ala7,Gln8,Ala10,Glu14,His17,Pro25,Pro28,Pro29,Asp31,Glu35,Pro37],des-(19-22)-human amylin] ({C18 diacid-γGlu}-AGELSTAQTARLAEFLHHFGPILPPTDVGSETP-NH2) | 95.8 | 35.59 | 0.48
2 | CC[C@H](C)[C@H](NC(=O)[C@H](C)NC(=O)CNC(=O)[C@H](Cc1ccccc1)NC(=O)[C@@H]1CCCN1C(=O)[C@H](CC(=O)O)NC(=O)[C@H](CO)NC(=O)[C@H](CO)NC(=O)[C@H](Cc1c[nH]cn1)NC(=O)[C@H](Cc1c[nH]cn1)NC(=O)[C@H](CC(C)C)NC(=O)[C@H](Cc1ccccc1)NC(=O)[C@H](CCC(=O)O)NC(=O)[C@H](C)NC(=O)[C@H](CC(C)C)NC(=O)[C@H](CCCNC(=N)N)NC(=O)[C@H](CCC(N)=O)NC(=O)[C@@H](NC(=O)[C@H](CCC(N)=O)NC(=O)[C@H](C)NC(=O)[C@@H](NC(=O)[C@H](CO)NC(=O)[C@H](CC(C)C)NC(=O)[C@H](Cc1c[nH]cn1)NC(=O)[C@H](CO)NC(=O)[C@H](C)NC(=O)CC[C@H](NC(=O)CCCCCCCCCCCCCCCCC(=O)O)C(=O)O)[C@@H](C)O)[C@@H](C)O)C(=O)N1CCC[C@H]1C(=O)N[C@@H](CO)C(=O)N[C@@H](CO)C(=O)N[C@H](C(=O)N[C@@H](CC(=O)O)C(=O)N[C@H](C(=O)NCC(=O)N1CCC[C@H]1C(=O)N[C@@H](CC(=O)O)C(=O)N[C@H](C(=O)N1CCC[C@H]1C(N)=O)[C@@H](C)O)C(C)C)[C@@H](C)O [Compound 8, N^1-[(4S)-4-carboxy-4-(17-carboxyheptadecanoylamino)butanoyl]-[Ala1,Ser2,His3,Leu4,Ser5,Ala7,Gln8,Glu14,His17,Asp21,Pro22,Pro27,Asp31,Pro34,Asp35,Pro37]-human amylin] ({C18 diacid-γGlu}-ASHLSTAQTQRLAEFLHHSSDPFGAIPSSTDVGPDTP-NH2) | 121 | 17.52 | 0.24
3 | CC[C@H](C)[C@H](NC(=O)[C@@H]1CCCN1C(=O)CNC(=O)[C@H](Cc1ccccc1)NC(=O)[C@H](Cc1c[nH]cn1)NC(=O)[C@H](Cc1c[nH]cn1)NC(=O)[C@H](CC(C)C)NC(=O)[C@H](Cc1ccccc1)NC(=O)[C@H](CCC(=O)O)NC(=O)[C@H](C)NC(=O)[C@H](CC(C)C)NC(=O)[C@H](CCCNC(=N)N)NC(=O)[C@H](CCC(N)=O)NC(=O)[C@@H](NC(=O)[C@H](CCC(N)=O)NC(=O)[C@H](C)NC(=O)[C@@H](NC(=O)[C@H](CO)NC(=O)[C@H](CC(C)C)NC(=O)[C@H](Cc1c[nH]cn1)NC(=O)[C@H](CO)NC(=O)[C@H](C)NC(=O)CC[C@H](NC(=O)CCCCCCCCCCCCCCCCCCC(=O)O)C(=O)O)[C@@H](C)O)[C@@H](C)O)C(=O)N[C@@H](CC(C)C)C(=O)N1CCC[C@H]1C(=O)N1CCC[C@H]1C(=O)N[C@H](C(=O)N[C@@H](CC(=O)O)C(=O)N[C@H](C(=O)NCC(=O)N[C@@H](CO)C(=O)N[C@@H](CCC(=O)O)C(=O)N[C@H](C(=O)N1CCC[C@H]1C(N)=O)[C@@H](C)O)C(C)C)[C@@H](C)O [Compound 4, N^1-[(4S)-4-carboxy-4-(19-carboxynonadecanoylamino)butanoyl]-[Ala1,Ser2,His3,Leu4,Ser5,Ala7,Gln8,Glu14,His17,Pro25,Pro28,Pro29,Asp31,Glu35,Pro37],des-(19-22)-human amylin] ({C20 diacid-γGlu}-ASHLSTAQTQRLAEFLHHFGPILPPTDVGSETP-NH2) | 130 | 21.24 | 0.23
4 | CC[C@H](C)[C@H](NC(=O)[C@H](C)NC(=O)CNC(=O)[C@H](Cc1ccccc1)NC(=O)[C@@H]1CCCN1C(=O)[C@H](CC(=O)O)NC(=O)[C@H](CO)NC(=O)[C@H](CO)NC(=O)[C@H](Cc1c[nH]cn1)NC(=O)[C@H](Cc1c[nH]cn1)NC(=O)[C@H](CC(C)C)NC(=O)[C@H](Cc1ccccc1)NC(=O)[C@H](CCC(=O)O)NC(=O)[C@H](C)NC(=O)[C@H](CC(C)C)NC(=O)[C@H](CCCNC(=N)N)NC(=O)[C@H](CCC(N)=O)NC(=O)[C@@H](NC(=O)[C@H](CCC(N)=O)NC(=O)[C@H](C)NC(=O)[C@@H](NC(=O)[C@H](CO)NC(=O)[C@H](CC(C)C)NC(=O)[C@H](CO)NC(=O)CNC(=O)[C@H](C)NC(=O)CC[C@H](NC(=O)CCCCCCCCCCCCCCCCC(=O)O)C(=O)O)[C@@H](C)O)[C@@H](C)O)C(=O)N1CCC[C@H]1C(=O)N[C@@H](CO)C(=O)N[C@@H](CO)C(=O)N[C@H](C(=O)N[C@@H](CC(=O)O)C(=O)N[C@H](C(=O)NCC(=O)N1CCC[C@H]1C(=O)N[C@@H](CC(=O)O)C(=O)N[C@H](C(=O)N1CCC[C@H]1C(N)=O)[C@@H](C)O)C(C)C)[C@@H](C)O [Compound 10, N^1-[(4S)-4-carboxy-4-(17-carboxyheptadecanoylamino)butanoyl]-[Ala1,Gly2,Ser3,Leu4,Ser5,Ala7,Gln8,Glu14,His17,Asp21,Pro22,Pro27,Asp31,Pro34,Asp35,Pro37]-human amylin] ({C18 diacid-γGlu}-AGSLSTAQTQRLAEFLHHSSDPFGAIPSSTDVGPDTP-NH2) | 131 | 27.73 | 0.34
5 | CC[C@H](C)[C@H](NC(=O)[C@H](C)NC(=O)CNC(=O)[C@H](Cc1ccccc1)NC(=O)[C@@H]1CCCN1C(=O)[C@H](CC(=O)O)NC(=O)[C@H](CO)NC(=O)[C@H](CO)NC(=O)[C@H](Cc1c[nH]cn1)NC(=O)[C@H](Cc1c[nH]cn1)NC(=O)[C@H](CC(C)C)NC(=O)[C@H](Cc1ccccc1)NC(=O)[C@H](CCC(=O)O)NC(=O)[C@H](C)NC(=O)[C@H](CC(C)C)NC(=O)[C@H](CCCNC(=N)N)NC(=O)[C@H](C)NC(=O)[C@@H](NC(=O)[C@H](CCC(N)=O)NC(=O)[C@H](C)NC(=O)[C@@H](NC(=O)[C@H](CO)NC(=O)[C@H](CC(C)C)NC(=O)[C@H](Cc1c[nH]cn1)NC(=O)[C@H](CO)NC(=O)[C@H](C)NC(=O)CC[C@H](NC(=O)CCCCCCCCCCCCCCCCC(=O)O)C(=O)O)[C@@H](C)O)[C@@H](C)O)C(=O)N1CCC[C@H]1C(=O)N[C@@H](CO)C(=O)N[C@@H](CO)C(=O)N[C@H](C(=O)N[C@@H](CC(=O)O)C(=O)N[C@H](C(=O)NCC(=O)N1CCC[C@H]1C(=O)N[C@@H](CC(=O)O)C(=O)N[C@H](C(=O)N1CCC[C@H]1C(N)=O)[C@@H](C)O)C(C)C)[C@@H](C)O [Compound 25, N^1-[(4S)-4-carboxy-4-(17-carboxyheptadecanoylamino)butanoyl]-[Ala1,Ser2,His3,Leu4,Ser5,Ala7,Gln8,Ala10,Glu14,His17,Asp21,Pro22,Pro27,Asp31,Pro34,Asp35,Pro37]-human amylin] ({C18 diacid-γGlu}-ASHLSTAQTARLAEFLHHSSDPFGAIPSSTDVGPDTP-NH2) | 152 | 24.15 | 0.34
